According to paper PMC5371824, “Phosphatidylinositol (4,5)-bisphosphate dynamically regulates the K2P background K^+ channel TASK-2” (Scientific Reports, 2017):
Residue numbers refer to the chain shown, from its start.

What was measured:
Assay type in all cases: biochemical
TASK-2-R4C = target: T1, TASK-2-R4C (Mus musculus, UniProt F6V9U5, R4C); experiment: Excised inside-out patch recording, TASK-2-R4C mutant; design: key to MTSET effect: ✓ under “MTSET effect” indicates a significant increase in current after treatment with the methanesulfonate reagent; — in all cases stands for no significant effect
T1 construct: expressed in transfected cells; host or cells: HEK-293
T1 sequence (F6V9U5 1-502 R4C): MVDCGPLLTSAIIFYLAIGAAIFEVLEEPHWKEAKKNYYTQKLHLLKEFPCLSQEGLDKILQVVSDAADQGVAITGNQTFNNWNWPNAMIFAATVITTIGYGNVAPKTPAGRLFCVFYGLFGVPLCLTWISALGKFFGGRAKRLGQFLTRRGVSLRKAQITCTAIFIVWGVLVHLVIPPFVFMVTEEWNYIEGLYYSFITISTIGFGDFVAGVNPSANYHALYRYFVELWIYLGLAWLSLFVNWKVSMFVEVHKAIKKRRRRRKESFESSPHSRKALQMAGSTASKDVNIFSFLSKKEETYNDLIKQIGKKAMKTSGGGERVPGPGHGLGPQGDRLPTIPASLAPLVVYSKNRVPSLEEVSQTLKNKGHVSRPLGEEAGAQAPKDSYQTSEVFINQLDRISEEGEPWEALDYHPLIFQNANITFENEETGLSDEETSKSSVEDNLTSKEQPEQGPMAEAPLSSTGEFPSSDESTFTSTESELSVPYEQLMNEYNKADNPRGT
Description: (§1) Figure 6 Scanning of potential sites of interaction of TASK-2 with PI(4,5)P2 by cysteine mutagenesis of intracellular basic residues. (A) Schematic representation of TASK-2 topology showing the sequences of segments of the protein predicted to be intracellular or intracellular-facing. Basic residues are highlighted in red. (B) Recording from an excised inside-out patch of membrane taken from a HEK-293 cell over-expressing TASK-2. The patch was held at −60 mV in the presence of 1 mM ATP. At the intervals indicated by the boxes the intracellular aspect of the membrane was exposed to 300 μM Neomycin and then to 100 μM TPeA. At the end of the TPeA period the patch was additionally exposed to 1 mM MTSET as shown by the black box. (C and D) experiments as in (B), but with inside-out membrane patches obtained from cells expressing the mutants TASK-2-H327C and TASK-2-K297C respectively. In D the reducing agent DTT was also added at 2 mM. (E) Summary of experiments comparing the current before and after treatment with MTSET. […]
(§2) Recordings in the inside-out isolated patch configuration were performed in the gap-free mode at −60 mV. […] Traces shown are prints from crude Clampfit screen shots and quantification was done using the average currents were calculated at intervals using Clampfit after baseline adjustment.

TASK-2-H327C = target: T2, TASK-2-H327C (Mus musculus, UniProt F6V9U5, H327C); experiment: Excised inside-out patch recording, TASK-2-H327C mutant; details: 1 mM, brief intracellular exposure in the presence of TPeA
T2 construct: expressed in transfected cells; host or cells: HEK-293
T2 sequence (F6V9U5 1-502 H327C): T1 sequence (F6V9U5 1-502 R4C) with C4R, H327C
Description: as §1, §2

TASK-2 = target: T3, TASK-2 (Mus musculus, UniProt F6V9U5); experiment: Excised inside-out patch recording from HEK-293 cells over-expressing TASK-2; details: 1 mM, inside-out patch
T3 construct: expressed in transfected cells; host or cells: HEK-293
T3 sequence (F6V9U5 1-502): T1 sequence (F6V9U5 1-502 R4C) with C4R
Description: HEK-293 cells were cultured in Dulbecco’s modified Eagle’s medium (DMEM) and F12 Ham’s medium at a 1:1 ratio and supplemented with 10% fetal calf serum at 37 °C in 5% CO2. For electrophysiological experiments, transient transfections were performed by electroporation, using CD8 cotransfection to identify effectively transfected cells. […] Experiments were performed 4–8 h after electroporation.
Recordings in the inside-out isolated patch configuration were performed in the gap-free mode at −60 mV. The inside aspect of the patch was bathed with a solution containing in mM: 10 KCl, 10 Glucose, 1 MgCl2, 10 EGTA, 1 Na3ATP, 0.1 GTP, 6.8 g/100 ml Sucrose, 10 Hepes/Tris, pH 7.4. The pipette contained in mM: 140 KCl, 10 Glucose, 6.8 g/100 ml Sucrose, 10 Hepes/Tris pH 7.4. For isolated patches, borosilicate capillaries (Harvard Apparatus GC150F-10 1.5 ODx0.86 ID) were fire polished to 4–5 MΩ and covered in beeswax. Acquisition was at 10 kHz with filter at 3 kHz (4-pole Bessel) and analysis was done with Clampfit 9.0 (Axon Instruments, Foster City, CA, USA). Traces shown are prints from crude Clampfit screen shots and quantification was done using the average currents were calculated at intervals using Clampfit after baseline adjustment.

Structure (SMILES): C[N+](C)(C)CCSS(C)(=O)=O.[Cl-] [MTSET, [2-(trimethylammonium)ethyl] methanethiosulfonate chloride]
- Effect of MTSET on TASK-2-R4C activity (TASK-2-R4C; 1 mM, in the presence of TPeA, inside-out patch): not affected
- MTSET effect (TASK-2-R4C; mutation R4C): —
- Effect of MTSET on TASK-2-H327C channel activity (TASK-2-H327C): Neither WT nor H327C channel activity is affected
- Effect of MTSET on WT TASK-2 channel activity (TASK-2; brief intracellular exposure in the presence of TPeA): Neither WT nor H327C channel activity is affected
- Effect of MTSET on WT TASK-2 activity (TASK-2; without TPeA, 1 mM ATP, Fig. S4): markedly reduced
